Results taken from patent publication US20250145628A1, “PYRAZOLOPYRIMIDINES, COMPOSITIONS COMPRISING THEM AND USES THEREOF” (Novo Nordisk A/S, priority 2022, published 2025).

Assays:
human CB1 receptor [1] = molecular target: T1, human CB1 receptor (Homo sapiens, UniProt P21554); assay: bioSensAll β-arrestin plasma membrane translocation BRET biosensor (+GRK2) assay (antagonism of CP-55,940); type: cell-based; conditions: HEK293 cells transfected with hCB1 and β-arrestin PM translocation biosensor (+GRK2), EC75 of CP-55,940 (100 nM), overnight incubation, read-out: CB1 wt βarr2 IC50
T1 construct: expressed in transfected cells; host or cells: HEK293
Outline: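 HEK293 cells co-transfected with hCB1 and β-arrestin plasma-membrane translocation BRET biosensor plus GRK2, tested ~48 h later in HBSS. Compounds (12 doses, 0–600 nM) added 3–5 min before CP-55,940 at EC75 of 100 nM. uBRET ratio (515/400 nm) fitted by four-parameter logistic regression.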

human CB1 receptor [2] = molecular target: T1, human CB1 receptor; assay: bioSensAll GAPL-Gi2 BRET biosensor assay (antagonism of CP-55,940); type: cell-based; conditions: HEK293 cells transfected with hCB1 and GAPL-Gi2 biosensor, EC75 of CP-55,940 (0.1 nM), overnight incubation, read-out: CB1 wt Gi2 IC50
Outline: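 HEK293 cells transiently co-transfected with hCB1 and GAPL-Gi2 BRET biosensor; ~48 h later, in HBSS, 12 compound doses ([…]) added 3–5 min before CP-55,940 at EC75 (0.1 nM). BRET ratio 515/400 nm with coelenterazine, standardized to uBRET; four-parameter logistic fit.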

T1 sequence (P21554 whole entry): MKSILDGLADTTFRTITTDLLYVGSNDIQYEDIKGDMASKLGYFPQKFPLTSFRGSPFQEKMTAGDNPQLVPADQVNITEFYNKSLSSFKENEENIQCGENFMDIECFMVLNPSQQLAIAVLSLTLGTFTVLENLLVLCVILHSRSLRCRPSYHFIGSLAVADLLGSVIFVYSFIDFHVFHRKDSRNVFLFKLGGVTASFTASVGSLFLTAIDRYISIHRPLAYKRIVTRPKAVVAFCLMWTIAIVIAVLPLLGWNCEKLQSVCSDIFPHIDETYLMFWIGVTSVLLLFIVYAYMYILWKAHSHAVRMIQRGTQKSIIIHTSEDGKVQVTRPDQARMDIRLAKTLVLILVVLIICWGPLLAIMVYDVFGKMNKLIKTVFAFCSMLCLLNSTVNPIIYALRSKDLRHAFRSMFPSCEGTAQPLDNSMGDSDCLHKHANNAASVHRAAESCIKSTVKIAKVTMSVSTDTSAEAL

Row | Structure (SMILES) | IC50 (human CB1 receptor [1]) [nM] | IC50 (human CB1 receptor [2]) [nM]
1 | CC(C)(O)COc1cc(N2CCC(C)(O)CC2)n2nc(-c3ccccc3Cl)c(-c3ccc(Cl)cc3)c2n1 [Compound 14, 1-[2-(2-chlorophenyl)-3-(4-chlorophenyl)-5-(2-hydroxy-2-methyl-propoxy)pyrazolo[1,5-a]pyrimidin-7-yl]-4-methyl-piperidin-4-ol] | 9.25 | 2.52
2 | CN(CC1COC(C)(C)OC1)c1cc(N2CCC(C)(C(N)=O)CC2)n2nc(-c3ccccc3Cl)c(-c3ccc(Cl)cc3)c2n1 [Compound 62, 1-[2-(2-chlorophenyl)-3-(4-chlorophenyl)-5-[(2,2-dimethyl-1,3-dioxan-5-yl)methyl-methyl-amino]pyrazolo[1,5-a]pyrimidin-7-yl]-4-methyl-piperidine-4-carboxamide] | > 30000 | 7610
3 | CC(C)OC1(C(N)=O)CCN(c2cc(N3CCC[C@H]3CO)nc3c(-c4ccc(Cl)cc4)c(-c4ccccc4Cl)nn23)CC1 [Compound 58, 1-[2-(2-chlorophenyl)-3-(4-chlorophenyl)-5-[(2S)-2-(hydroxymethyl)pyrrolidin-1-yl]pyrazolo[1,5-a]pyrimidin-7-yl]-4-isopropoxy-piperidine-4-carboxamide] | 2.2 | 0.99
4 | COc1ccccc1-c1nn2c(-c3cccc(C#N)c3)cc(N3CCC[C@H]3CO)nc2c1-c1ccc(Cl)cc1 [Compound 3, 3-[3-(4-chlorophenyl)-5-[(2S)-2-(hydroxymethyl)pyrrolidin-1-yl]-2-(2-methoxyphenyl)pyrazolo[1,5-a]pyrimidin-7-yl]benzonitrile] | 9.94 | 1.77
5 | CCNC(=O)CN(C)c1cc(N2CC(CC(N)=O)C2)n2nc(-c3ccccc3Cl)c(-c3ccc(Cl)cc3)c2n1 [Compound 31, 2-[1-[2-(2-chlorophenyl)-3-(4-chlorophenyl)-5-[[2-(ethylamino)-2-oxo-ethyl]-methyl-amino]pyrazolo[1,5-a]pyrimidin-7-yl]azetidin-3-yl]acetamide] | 418 | 114
